Assay results from PMC8252567 (Angewandte Chemie (International Ed. in English), 2021).
Non-standard residues stand in square brackets, D forms with d. Residues, ends and D or L forms follow the SMILES beside them. *: point of attachment. FITC = O=C1OC2(c3ccc(O)cc3Oc3cc(O)ccc32)c2ccc(NC(=S)*)cc21; Nle = CCCC[C@H](N)C(=O)O; AEEA = NCCOCCOCC(=O)O; βAla = NCCC(=O)O

Biological target: T1, full length β-catenin (aa 1-781) (Homo sapiens, UniProt P35222)
T1 sequence (P35222 1-781): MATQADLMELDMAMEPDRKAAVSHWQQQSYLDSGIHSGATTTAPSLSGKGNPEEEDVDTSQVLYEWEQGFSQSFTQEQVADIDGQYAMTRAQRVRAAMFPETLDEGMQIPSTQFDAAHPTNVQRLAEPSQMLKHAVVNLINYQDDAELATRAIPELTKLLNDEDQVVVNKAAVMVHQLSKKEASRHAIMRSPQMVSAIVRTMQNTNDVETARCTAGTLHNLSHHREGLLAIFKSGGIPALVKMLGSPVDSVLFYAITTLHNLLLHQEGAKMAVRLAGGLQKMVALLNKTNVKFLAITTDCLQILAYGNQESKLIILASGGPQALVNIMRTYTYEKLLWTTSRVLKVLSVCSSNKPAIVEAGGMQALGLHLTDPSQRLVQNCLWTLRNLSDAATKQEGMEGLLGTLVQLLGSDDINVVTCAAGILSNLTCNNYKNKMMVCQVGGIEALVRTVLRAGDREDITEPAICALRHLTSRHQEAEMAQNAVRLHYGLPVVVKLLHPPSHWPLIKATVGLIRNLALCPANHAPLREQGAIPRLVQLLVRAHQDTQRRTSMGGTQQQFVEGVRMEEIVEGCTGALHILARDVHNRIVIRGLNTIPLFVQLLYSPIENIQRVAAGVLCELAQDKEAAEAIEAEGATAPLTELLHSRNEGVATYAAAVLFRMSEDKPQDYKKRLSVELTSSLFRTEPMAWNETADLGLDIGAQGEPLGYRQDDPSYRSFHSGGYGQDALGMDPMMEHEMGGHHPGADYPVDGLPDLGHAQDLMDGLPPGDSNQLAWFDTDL
Experiment: Direct fluorescence polarization
Assay type: binding

Row | Kd [µM] | SMILES
1 | > 5 | CCCC[C@H](NC(=O)[C@H](CC(C)C)NC(=O)[C@@H](NC(=O)[C@@H]1CCCN1C(=O)[C@H](C)NC(=O)[C@@H](NC(=O)[C@H](CC(=O)O)NC(=O)[C@H](CC(N)=O)NC(=O)[C@H](CCCNC(=N)N)NC(=O)[C@@H](NC(=O)[C@@H](NC(=O)CCNC(=O)CCNC(=O)[C@H](Cc1ccccc1)NC(=O)[C@@H](NC(=O)[C@H](CC(C)C)NC(=O)[C@H](CC(C)C)NC(=O)[C@H](CO)NC(=O)[C@H](CC(=O)O)NC(=O)COCCOCCNC(=S)Nc1ccc2c(c1)C(=O)OC21c2ccc(O)cc2Oc2cc(O)ccc21)C(C)C)C(C)C)[C@@H](C)O)C(C)C)[C@@H](C)O)C(=O)N[C@@H](CO)C(=O)N[C@H](C(=O)N1CCC[C@H]1C(=O)N[C@@H](CCC(N)=O)C(N)=O)C(C)C [peptide 9] ({FITC-AEEA}-DSLLVF[βAla][βAla]VTRNDVAPTL[Nle]SVPQ-NH2)
2 | > 5 | CC(C)C[C@H](NC(=O)[C@H](CO)NC(=O)[C@H](CC(=O)O)NC(=O)COCCOCCNC(=S)Nc1ccc2c(c1)C(=O)OC21c2ccc(O)cc2Oc2cc(O)ccc21)C(=O)N[C@@H](CC(C)C)C(=O)N[C@H](C(=O)N[C@@H](Cc1ccccc1)C(=O)NCCC(=O)NCCC(=O)N[C@H](C(=O)N[C@H](C(=O)N[C@@H](CCCNC(=N)N)C(=O)N[C@@H](CC(N)=O)C(=O)N[C@@H](CC(=O)O)C(=O)N[C@H](C(N)=O)C(C)C)[C@@H](C)O)C(C)C)C(C)C [peptide 11] ({FITC-AEEA}-DSLLVF[βAla][βAla]VTRNDV-NH2)
